Assay results reported in patent US20100075852A1, “HERBICIDE COMBINATION COMPRISING DIMETHOXYTRIAZINYL-SUBSTITUTED DIFLUOROMETHANESULFONYLANILIDES” (BAYER CROPSCIENCE AG, priority 2008, published 2010).
Where two headings read alike, the source gives them in different places.

Experiments:
Experiment in all cases: Post-emergence action against weeds, greenhouse pot test, visual scoring
Assay type in all cases: in vivo
[1] = tested on: Avena fatua (AVEFA); conditions: for inhibition at 8 g/ha: Avena fatua, post-emergence, read-out: % activity found; for (7) activity found: AVEFA, 21 DAT
Protocol: (§1) Seeds or rhizome pieces of mono- and dicotyledonous harmful and useful plants were placed in peat pots (diameter 4 cm) filled with sandy loam and then covered with soil. The pots were kept in a greenhouse under optimum conditions. In addition, harmful plants encountered in paddy rice cultivation were cultivated in pots with a water level 2 cm above the soil surface.
(§2) About three weeks after the start of the cultivation, the test plants were treated at the 2- to 3-leaf stage. The herbicides, formulated as powder or liquid concentrates, were, either alone or in the combinations according to the invention, sprayed in various dosages on to the green parts of the plants using an application rate of 600 l of water/ha (converted). For further cultivation of the plants, the pots were then again kept under optimum conditions in a greenhouse.
(§3) The visual scoring of the herbicidal effects was carried out in intervals up to 21 days after the treatment. Scoring was carried out in percent in comparison to the untreated control plants. 0%=no herbicidal activity, 100%=complete herbicidal activity=complete kill.
(§4) The percentages from the treatments with the herbicides alone (=individual application) and with the combinations according to the invention (=mixtures) were employed to calculate interactions using the method of Colby.
(§5) • A, B=activity of components A and B in percent at a dosage of a and b g of ai/ha (=gramm of active substance per hectare), respectively. • E=expected value in % at a dosage of a+b g of ai/ha.

[2] = tested on: Fallopia (ex Polygonum) convolvulus (POLCO); conditions: for (7) activity found: POLCO, 21 DAT
Protocol: as §1, §2, §3, §4, §5

[3] = tested on: Lolium multiflorum (LOLMU); conditions: for (7) activity found: LOLMU, 10 DAT
Protocol: as §1, §2, §3, §4, §5

[4] = tested on: Matricaria inodora (MATIN); conditions: for (7) activity found: MATIN, 21 DAT
Protocol: as §1, §2, §3, §4, §5

[5] = tested on: Zea mays (ZEAMX); conditions: for inhibition at 24 g/ha: Zea mays, post-emergence, read-out: % activity found; for (7) activity found: ZEAMX
Protocol: as §1, §2, §3, §4, §5

[6] = tested on: Alopecurus myosuroides (ALOMY); conditions: read-out: % activity found
Protocol: as §1, §2, §3
(§6) The percentages from the treatments with the herbicides alone (=individual application) and with the combinations according to the invention (=mixtures) were employed to calculate interactions using the method of Colby. When the observed efficacies of the mixtures exceed the formal sum of the values of the tests with individual applications, they also exceed the expected value according to Colby, which is calculated using the formula below (cf. S. R. Colby; in Weeds 15 (1967) pp. 20 to 22):
as §5

[7] = tested on: Oryza sativa (ORYSA); conditions: read-out: % activity found
Protocol: as §1, §2, §3, §6, §5

[8] = tested on: Setaria viridis (SETVI); conditions: 504 h, read-out: % activity found
Protocol: as §1, §2, §3, §6, §5

[9] = tested on: Abuthilon theophrasti (ABUTH); conditions: 21 DAT, rate (6) B7-4 120
Protocol: as §1, §2, §3, §4, §5

[10] = tested on: Pharbitis purpurea (PHBPU); conditions: 21 DAT
Protocol: as §1, §2, §3, §4, §5

[11] = tested on: Stellaria media (STEME); conditions: 10 DAT
Protocol: as §1, §2, §3, §4, §5

[12] = tested on: Triticum aestivum (TRZAS)
Protocol: as §1, §2, §3, §4, §5

[13] = tested on: Veronica persica (VERPE); conditions: 21 DAT
Protocol: as §1, §2, §3, §4, §5

[14] = tested on: Viola tricolor (VIOTR); conditions: rate (6) B7-4 40
Protocol: as §1, §2, §3, §4, §5

[15] = Fallopia convolvulus, post-emergence, 504 h, read-out: % activity found
[16] = Lolium multiflorum, post-emergence, 240 h, read-out: % activity found
[17] = Tripleurospermum inodorum, post-emergence, 504 h, read-out: % activity found

Cc1nn(C)c(O)c1C(=O)c1ccc(C(F)(F)F)cc1S(C)(=O)=O [B1-6, (5-hydroxy-1,3-dimethyl-1H-pyrazol-4-yl)[2-(methylsulfonyl)-4-(trifluoromethyl)phenyl]methanone]
40%: inhibition at 8 g/ha ([7]; 504 h)
60%: inhibition at 24 g/ha [2, 15]
50%: inhibition at 8 g/ha [2, 15] | inhibition at 8 g/ha ([7]; 240 h)
70%: inhibition at 24 g/ha ([7]; 504 h)
30%: inhibition at 24 g/ha [4, 17]
20%: inhibition at 8 g/ha [4, 17]
0%: inhibition at 8 g/ha ([1]; 240 h) | inhibition at 8 g/ha ([1]; 504 h) | inhibition at 8 g/ha [3, 16] | inhibition at 24 g/ha [3, 16] | inhibition at 8 g/ha ([3]; Lolium multiflorum, post-emergence, 504 h, read-out: % activity found) | inhibition at 24 g/ha ([5]; 240 h) | inhibition at 24 g/ha ([5]; 504 h) | inhibition at 8 g/ha ([6]; 240 h) | inhibition at 24 g/ha ([6]; 240 h) | inhibition at 8 g/ha ([6]; 504 h) | inhibition at 24 g/ha ([6]; 504 h) | inhibition at 8 g/ha [8] | inhibition at 24 g/ha [8]

CCN(CC)C(=O)n1cnc(S(=O)(=O)c2c(C)cc(C)cc2C)n1 [B7-4, N,N-diethyl-3-[(2,4,6-trimethylphenyl)sulfonyl]-1H-1,2,4-triazole-1-carboxamide]
20%: (7) activity found [9] | (7) activity found ([10]; rate (6) B7-4 40) | (7) activity found ([10]; rate (6) B7-4 120)
40%: (7) activity found ([3]; rate (6) B7-4 120)
50%: (7) activity found ([2]; rate (6) B7-4 120)
30%: (7) activity found ([1]; rate (6) B7-4 120) | (7) activity found ([2]; rate (6) B7-4 40 (Table 82)) | (7) activity found ([2]; rate (6) B7-4 40 (Table 83))
0%: (7) activity found ([1]; rate (6) B7-4 40 (Table 78)) | (7) activity found ([1]; rate (6) B7-4 40 (Table 79)) | (7) activity found ([3]; rate (6) B7-4 40) | (7) activity found ([4]; rate (6) B7-4 40) | (7) activity found ([4]; rate (6) B7-4 120) | (7) activity found ([12]; 10 DAT, rate (6) B7-4 40) | (7) activity found ([12]; 21 DAT, rate (6) B7-4 40) | (7) activity found ([12]; 21 DAT, rate (6) B7-4 120) | (7) activity found ([13]; rate (6) B7-4 40) | (7) activity found ([13]; rate (6) B7-4 120) | (7) activity found ([14]; 10 DAT) | (7) activity found ([14]; 21 DAT) | (7) activity found ([5]; 21 DAT, rate (6) B7-4 40) | (7) activity found ([5]; 21 DAT, rate (6) B7-4 120)
10%: (7) activity found ([11]; rate (6) B7-4 40) | (7) activity found ([11]; rate (6) B7-4 120) | (7) activity found ([5]; 10 DAT, rate (6) B7-4 40)
